The target of this experiment is human PDE10A2 (Homo sapiens (Human), UniProt Q9Y233). As to the kind of experiment: PDE10 fluorescence polarization (IMAP FP) inhibition assay. Type of experiment: biochemical. As to conditions: apparent inhibition constant, FAM-labeled cAMP substrate 50 nM, room temperature. How it is done:
The activity of the compounds in accordance with the present invention as PDE10 inhibitors may be readily determined without undue experimentation using a fluorescence polarization (FP) methodology that is well known in the art (Huang, W., et al., J. Biomol Screen, 2002, 7: 215).
In a typical experiment the PDE10 inhibitory activity of the compounds of the present invention was determined in accordance with the following experimental method. PDE10A2 was amplified from human fetal brain cDNA (Clontech, Mountain View, Calif.) using a forward primer corresponding to nucleotides 56-77 of human PDE10A2 (Accession No. AF127480, Genbank Identifier 4894716), containing a Kozak consensus sequence, and a reverse primer corresponding to nucleotides 2406-2413 of human PDE10A2 (Accession No. AF127480, Genbank Identifier 4894716). Amplification with Easy-A polymerase (Stratagene, La Jolla, Calif.) was 95° C. for 2 minutes followed by thirty three cycles of 95° C. for 40 seconds, 55° C. for 30 seconds, and 72° C. for 2 minutes 48 seconds. Final extension was 72° C. for 7 minutes. The PCR product was TA cloned into pcDNA3.2-TOPO (Invitrogen, Carlsbad, Calif.) according to standard protocol. AD293 cells with 70-80% confluency were transiently transfected with human PDE10A2/pcDNA3.2-TOPO using Lipofectamine 2000 according to manufacturer specifications (Invitrogen, Carlsbad, Calif.). Cells were harvested 48 hours post-transfection and lysed by sonication (setting 3, 10×5 sec pulses) in a buffer containing 20 mM HEPES, 1 mM EDTA and protease inhibitor cocktail (Roche). Lysate was collected by centrifugation at 75,000×g for 20 minutes. Supernatant containing the cytoplasmic fraction was used for evaluation of PDE10A2 activity. The fluorescence polarization assay for cyclic nucleotide phosphodiesterases was performed using an IMAP® FP kit supplied by Molecular Devices, Sunnyvale, Calif. (product # R8139). IMAP® technology has been applied previously to phosphodiesterase assays (Huang, W., et al., J. Biomol Screen, 2002, 7: 215). Assays were performed at room temperature in 384-well microtiter plates with an incubation volume of 20.2 μL. Solutions of test compounds were prepared in DMSO and serially diluted with DMSO to yield 8 μL of each of 10 solutions differing by 3-fold in concentration, at 32 serial dilutions per plate. 100% inhibition is determined using a known PDE10 inhibitor, which can be any compound that is present at 5,000 times its Ki value in the assay described as follows, such as papaverine (see Siuciak, et al. Neuropharmacology (2006) 51:386-396; Becker, et al. Behav Brain Res (2008) 186(2):155-60; Threlfell, et al., J Pharmacol Exp Ther (2009) 328(3):785-795), 2-{4-[pyridin-4-yl-1-(2,2,2-trifluoroethyl)-1H-pyrazol-3-yl]phenoxymethyl}quinoline succinic acid or 2-[4-(1-methyl-4-pyridin-4-yl-1H-pyrazol-3-yl)-phenoxymethyl]quinoline succinic acid (see Schmidt, et al. J Pharmacol Exp Ther (2008) 325:681-690; Threlfell, et al., J Pharmacol Exp Ther (2009) 328(3): 785-795). 0% of inhibition is determined by using DMSO (1% final concentrations). A Labcyte Echo 555 (Labcyte, Sunnyvale, Calif.) is used to dispense […] from each well of the titration plate to the 384 well assay plate. A solution of enzyme (1/7000 dilution from aliquots; sufficient to produce 20% substrate conversion) and a separate solution of FAM-labeled cAMP PDE from Molecular Devices (product # R7506), at a final concentration of 50 nM are made in the assay buffer (10 mM Tris HCl, pH 7.2, 10 mM MgCl2, 0.05% NaN3 0.01% Tween-20, and 1 mM DTT). The enzyme is added to the assay plates by the addition of 10 μL of enzyme solution to each well, shaken to mix and incubated at room temperature for 60 minutes. The substrate is then added to the assay plates by the addition of 10 μL of substrate solution to each well, shaken to mix, and incubated at room temperature for 60 minutes. […]
Background: In fluorescence polarisation assays a small probe gives low polarisation when free and higher when bound to something large.

Sequence of human PDE10A2 (Q9Y233 267-1055): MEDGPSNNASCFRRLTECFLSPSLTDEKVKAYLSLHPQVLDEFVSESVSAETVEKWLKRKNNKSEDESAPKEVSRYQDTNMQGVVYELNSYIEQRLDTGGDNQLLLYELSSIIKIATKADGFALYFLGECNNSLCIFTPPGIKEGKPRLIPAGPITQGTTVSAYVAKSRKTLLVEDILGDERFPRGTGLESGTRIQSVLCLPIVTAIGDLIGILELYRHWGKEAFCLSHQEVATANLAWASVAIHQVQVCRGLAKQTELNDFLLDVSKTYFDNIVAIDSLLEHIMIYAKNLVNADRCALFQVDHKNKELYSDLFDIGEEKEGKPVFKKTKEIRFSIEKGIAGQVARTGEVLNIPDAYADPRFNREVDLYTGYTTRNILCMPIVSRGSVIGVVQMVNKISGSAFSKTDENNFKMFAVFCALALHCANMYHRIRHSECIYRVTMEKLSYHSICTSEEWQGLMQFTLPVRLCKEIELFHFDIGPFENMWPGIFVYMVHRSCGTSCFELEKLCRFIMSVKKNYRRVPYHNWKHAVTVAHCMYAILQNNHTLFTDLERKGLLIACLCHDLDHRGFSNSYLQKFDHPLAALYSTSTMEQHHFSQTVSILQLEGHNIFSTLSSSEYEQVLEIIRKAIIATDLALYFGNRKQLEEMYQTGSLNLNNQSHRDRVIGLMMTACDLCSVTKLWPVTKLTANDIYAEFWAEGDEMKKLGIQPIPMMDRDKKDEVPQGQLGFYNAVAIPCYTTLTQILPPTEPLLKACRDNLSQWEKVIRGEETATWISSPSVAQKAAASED

Turning to `Cc1nc(N2CC(c3nc4ccc(C(F)(F)F)cc4[nH]3)C2)cc(-n2nc(C)nc2C)n1` [Example 113, 2-(1-(6-(3,5-dimethyl-1H-1,2,4-triazol-1-yl)-2-methylpyrimidin-4-yl)azetidin-3-yl)-6-(trifluoromethyl)-1H-benzo[d]imidazole], the Ki was above 75 nM. On to `Cc1nc(N2CC(c3nc4ccccc4n3C)C2)cc(-n2nc(C)nc2C(C)C)n1` [Example 39, 2-(1-(6-(5-isopropyl-3-methyl-1H-1,2,4-triazol-1-yl)-2-methylpyrimidin-4-yl)azetidin-3-yl)-1-methyl-1H-benzo[d]imidazole], for which the Ki came out at 3.1 nM. Next, `Cc1nc(N2CC(c3nc4c(F)cccc4n3C)C2)cc(-n2nc(C)nc2C)n1` [Example 122, 2-(1-(6-(3,5-dimethyl-1H-1,2,4-triazol-1-yl)-2-methylpyrimidin-4-yl)azetidin-3-yl)-4-fluoro-1-methyl-1H-benzo[d]imidazole]: 17 nM; `Cc1nc(-c2nccs2)cc(N2CC(c3nc4ccccc4n3C)C2)n1` [Example 105, 2-(2-methyl-6-(3-(1-methyl-1H-benzo[d]imidazol-2-yl)azetidin-1-yl)pyrimidin-4-yl)thiazole]: 2.2 nM; `Cc1nc(N2CC(c3nc4ccccc4n3C)C2)cc(-n2ccc(C(F)(F)F)n2)n1` [Example 11, 1-methyl-2-(1-(2-methyl-6-(3-(trifluoromethyl)-1H-pyrazol-1-yl)pyrimidin-4-yl)azetidin-3-yl)-1H-benzo[d]imidazole]: 0.76 nM.

For the compound `CCc1nc(C)nn1-c1cc(N2CC(c3nc4ccccc4n3C)C2)nc(OC)n1` [Example 64, 2-(1-(6-(5-ethyl-3-methyl-1H-1,2,4-triazol-1-yl)-2-methoxypyrimidin-4-yl)azetidin-3-yl)-1-methyl-1H-benzo[d]imidazole], the Ki was 0.4 nM. With `Cc1nc(N2CC(c3nc4ccccc4n3C)C2)cc(-n2nc(C)nc2Cc2cc(F)ccc2F)n1` [Example 57, 2-(1-(6-(5-(2,5-difluorobenzyl)-3-methyl-1H-1,2,4-triazol-1-yl)-2-methylpyrimidin-4-yl)azetidin-3-yl)-1-methyl-1H-benzo[d]imidazole], the Ki stood at 0.065 nM. Take `Cc1nc(-c2ccc(Cl)cn2)cc(N2CC(c3nc4ccccc4n3C)C2)n1` [Example 99, 2-(1-(6-(5-chloropyridin-2-yl)-2-methylpyrimidin-4-yl)azetidin-3-yl)-1-methyl-1H-benzo[d]imidazole]: the Ki is 1.1 nM. `Cc1nc(-c2ncco2)cc(N2CC(c3nc4ccccc4n3C)C2)n1` [Example 104, 2-(2-methyl-6-(3-(1-methyl-1H-benzo[d]imidazol-2-yl)azetidin-1-yl)pyrimidin-4-yl)oxazole]: the Ki was 20 nM. Next, `Cc1nc(N2CC(c3nc4ccccc4n3C)C2)cc(-n2cc(C(F)(F)F)cn2)n1` [Example 16, 1-methyl-2-(1-(2-methyl-6-(4-(trifluoromethyl)-1H-pyrazol-1-yl)pyrimidin-4-yl)azetidin-3-yl)-1H-benzo[d]imidazole]: 2.7 nM; `Cc1cn(-c2cc(N3CC(c4nc5ccccc5n4C)C3)nc(C(F)(F)F)n2)nn1` [Example 30, 1-methyl-2-(1-(6-(4-methyl-1H-1,2,3-triazol-1-yl)-2-(trifluoromethyl)pyrimidin-4-yl)azetidin-3-yl)-1H-benzo[d]imidazole]: 5.6 nM.

Turning to `Cc1nc(N2CC(c3nc4ccccc4n3C)C2)cc(-n2nc(C)nc2CN2CCCC2=O)n1` [Example 48, 1-((3-methyl-1-(2-methyl-6-(3-(1-methyl-1H-benzo[d]imidazol-2-yl)azetidin-1-yl)pyrimidin-4-yl)-1H-1,2,4-triazol-5-yl)methyl)pyrrolidin-2-one], the Ki was 0.26 nM. Take `COc1nc(N2CC(c3nc4ccccc4n3C)C2)cc(-n2cc(C)cn2)n1` [Example 4, 2-(1-(2-methoxy-6-(4-methyl-1H-pyrazol-1-yl)pyrimidin-4-yl)azetidin-3-yl)-1-methyl-1H-benzo[d]imidazole]: the Ki was 0.82 nM. For `Cc1nc(N2CC(c3nc4cccc(C(F)(F)F)c4[nH]3)C2)cc(-n2nc(C)nc2C)n1` [Example 112, 2-(1-(6-(3,5-dimethyl-1H-1,2,4-triazol-1-yl)-2-methylpyrimidin-4-yl)azetidin-3-yl)-7-(trifluoromethyl)-1H-benzo[d]imidazole] the value was above 75 nM; for `Cc1nc(N2CC(c3nc4ccccc4n3C)C2)cc(-n2ccc(C(C)C)n2)n1` [Example 14, 2-(1-(6-(3-isopropyl-1H-pyrazol-1-yl)-2-methylpyrimidin-4-yl)azetidin-3-yl)-1-methyl-1H-benzo[d]imidazole], 0.65 nM. As for `CCc1nc(CC)n(-c2cc(N3CC(c4nc5ccccc5n4C)C3)nc(C)n2)n1` [Example 22, 2-(1-(6-(3,5-diethyl-1H-1,2,4-triazol-1-yl)-2-methylpyrimidin-4-yl)azetidin-3-yl)-1-methyl-1H-benzo[d]imidazole], the Ki came out at 3.3 nM. Consider `Cc1nc(C)n(-c2cc(N3CC(c4nc5ccccc5n4C)C3)nc(OCc3nccs3)n2)n1` [Example 72, 2-(((4-(3,5-dimethyl-1H-1,2,4-triazol-1-yl)-6-(3-(1-methyl-1H-benzo[d]imidazol-2-yl)azetidin-1-yl)pyrimidin-2-yl)oxy)methyl)thiazole], for which the Ki came out at 0.28 nM.

Turning to `Cc1nc(-c2ccccc2C(=O)O)cc(N2CC(c3nc4ccccc4n3C)C2)n1` [Example 93, 2-(2-methyl-6-(3-(1-methyl-1H-benzo[d]imidazol-2-yl)azetidin-1-yl)pyrimidin-4-yl)benzoic acid], the Ki came out at 19 nM. Consider `CCOC(=O)Cc1nc(N2CC(c3nc4ccccc4n3C)C2)cc(-n2nc(C)nc2C)n1` [Example 26, ethyl 2-(4-(3,5-dimethyl-1H-1,2,4-triazol-1-yl)-6-(3-(1-methyl-1H-benzo[d]imidazol-2-yl)azetidin-1-yl)pyrimidin-2-yl)acetate], for which the Ki was 3.1 nM. For `COc1ccn(-c2cc(N3CC(c4nc5ccccc5n4C)C3)nc(C)n2)n1` [Example 12, 2-(1-(6-(3-methoxy-1H-pyrazol-1-yl)-2-methylpyrimidin-4-yl)azetidin-3-yl)-1-methyl-1H-benzo[d]imidazole], the Ki was 4.7 nM.

For the compound `Cc1nc(N2CC(c3nc4ccccc4[nH]3)C2)cc(-n2nc(C)nc2C)n1` [Example 107, 2-(1-(6-(3,5-Dimethyl-1H-1,2,4-triazol-1-yl)-2-methylpyrimidin-4-yl)azetidin-3-yl)-1H-benzo[d]imidazole], the Ki stood at 5.8 nM. For `Cc1cccc(-c2cc(N3CC(c4nc5ccccc5n4C)C3)nc(C)n2)n1` [Example 98, 1-methyl-2-(1-(2-methyl-6-(6-methylpyridin-2-yl)pyrimidin-4-yl)azetidin-3-yl)-1H-benzo[d]imidazole] the value was 5.5 nM; for `Cc1nc(N2CC(c3nc4c(C(F)(F)F)cccc4n3C)C2)cc(-n2nc(C)nc2C)n1` [Example 125, 2-(1-(6-(3,5-dimethyl-1H-1,2,4-triazol-1-yl)-2-methylpyrimidin-4-yl)azetidin-3-yl)-1-methyl-4-(trifluoromethyl)-1H-benzo[d]imidazole], 37 nM. As to `Cc1cn(-c2cc(N3CC(c4nc5ccccc5n4C)C3)nc(C)n2)nn1` [Example 29, 1-methyl-2-(1-(2-methyl-6-(4-methyl-1H-1,2,3-triazol-1-yl)pyrimidin-4-yl)azetidin-3-yl)-1H-benzo[d]imidazole], the Ki came to 3.1 nM.
